The values below come from paper PMC9820167, “Design and Synthesis of Conformationally Flexible Scaffold as Bitopic Ligands for Potent D3-Selective Antagonists” (International Journal of Molecular Sciences, 2022).

Bounds are passed on as bounds.

In test [1] the target is T1, human D3 receptors (Homo sapiens, UniProt P35462). The test can be described thus: β-arrestin recruitment assay (antagonist mode, competition with dopamine). It counts as cell-based. The arrangement: expressed in transfected cells. As to conditions: for Emax: percentage of the maximum inhibition of dopamine at EC80 concentration, read-out: Imax (% Control); for IC50: potency for D3 receptors, CHO-K1 cells, vs 30 nM (EC80) dopamine, mean ± SD, three experiments, read-out: IC50. As to the method: (§1) Two different assays were used to evaluate the properties of the analogs described above. The receptor binding affinity was measured by radioligand binding assays using [^125I]IABN with D2 or D3 receptors highly expressed HEK293 cells. The functional activity of the analogs was determined using a β-arrestin recruitment assay. The assay was initially conducted in agonist binding mode to confirm that they function as antagonists at the D3 receptor. Once this efficacy was confirmed, the assay was conducted in antagonist mode to determine the ability of the antagonist to compete with dopamine at the D3 receptor. The results of the antagonist mode assay are reported as IC50 values.
CHO-K1 cells which were overexpressed human D3 receptors were cultured in assaycomplete^TM cell culture kit 107. Cells were seeded at a density of 25,000 cells per well of 96-well plate, and incubated at 5% CO2, 37 °C. Two days later, test compounds were dissolved in DMSO, and diluted with 11-point series in phosphate-buffered saline (PBS). Prepared compounds were added to the cells, and it was incubated for 30 min at 5% CO2, 37 °C. Then, cells were treated with 30 nM (EC80) of dopamine, and the plate was incubated another 90 min. PathHunter^TM detection reagent was added to each well, and then plate was incubated for 80 min at RT in the dark. The chemiluminescent signal was measured by PerkinElmer Enspire plate reader (PerkinElmer, Boston, MA). Data were analyzed by Prism followed by non-linear regression.
For orientation: Activated receptors often draw arrestin, which recruitment assays turn into a signal.

In test [2] the target is T2, Muscarinic M5 (Homo sapiens, UniProt P08912).
T2 sequence (P08912 1-532): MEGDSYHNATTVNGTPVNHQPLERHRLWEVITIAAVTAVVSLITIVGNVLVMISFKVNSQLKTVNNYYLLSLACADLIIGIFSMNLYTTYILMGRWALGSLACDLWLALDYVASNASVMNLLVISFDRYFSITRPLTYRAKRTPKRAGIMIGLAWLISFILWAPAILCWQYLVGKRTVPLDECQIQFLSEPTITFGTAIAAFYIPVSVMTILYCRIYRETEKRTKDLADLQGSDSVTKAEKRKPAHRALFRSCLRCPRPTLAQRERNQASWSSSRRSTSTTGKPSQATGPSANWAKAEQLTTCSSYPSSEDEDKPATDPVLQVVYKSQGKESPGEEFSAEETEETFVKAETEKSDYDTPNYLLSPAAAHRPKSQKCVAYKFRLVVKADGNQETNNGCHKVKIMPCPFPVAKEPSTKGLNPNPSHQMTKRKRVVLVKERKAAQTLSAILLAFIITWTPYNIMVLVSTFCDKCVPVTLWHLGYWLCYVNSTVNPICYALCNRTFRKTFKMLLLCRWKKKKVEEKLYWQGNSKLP
The test is described as follows: PDSP binding screen. As to conditions: for inhibition at 10 µM: read-out: Ki (nM) or % inhibition at 10 µM: M5.

The target in test [3] is Serotonin 5-HT1B (Homo sapiens, UniProt P28222). The test can be described thus: PDSP binding screen. Particulars: for inhibition at 10 µM: read-out: Ki (nM) or % inhibition at 10 µM: 5-HT1B.
Test [4] addresses Histamine H1 (Homo sapiens, UniProt P35367). The test can be described thus: PDSP binding screen.
Test [5] concerns the target T3, Muscarinic M4 (Homo sapiens, UniProt P08173).
T3 sequence (P08173 1-479): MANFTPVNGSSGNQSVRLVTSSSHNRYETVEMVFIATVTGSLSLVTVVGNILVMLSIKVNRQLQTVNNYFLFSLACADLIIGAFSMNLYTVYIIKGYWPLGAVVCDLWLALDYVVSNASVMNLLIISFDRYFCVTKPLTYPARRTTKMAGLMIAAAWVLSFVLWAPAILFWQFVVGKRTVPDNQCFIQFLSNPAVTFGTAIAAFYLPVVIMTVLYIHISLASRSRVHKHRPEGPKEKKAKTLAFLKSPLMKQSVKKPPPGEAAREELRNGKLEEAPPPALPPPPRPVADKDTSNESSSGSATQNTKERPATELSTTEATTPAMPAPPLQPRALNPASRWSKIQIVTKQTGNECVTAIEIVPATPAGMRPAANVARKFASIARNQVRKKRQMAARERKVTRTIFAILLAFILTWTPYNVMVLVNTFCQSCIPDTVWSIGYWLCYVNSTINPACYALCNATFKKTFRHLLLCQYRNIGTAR
The test can be described thus: PDSP binding screen. Particulars: for inhibition at 10 µM: read-out: Ki (nM) or % inhibition at 10 µM: M4.

Test [6] has as its target Adrenergic beta3 (Homo sapiens, UniProt P13945). The test can be described thus: PDSP binding screen.
Test [7] concerns the target T1, human D3 receptors. The test is described as follows: Radioligand binding assay with [125I]IABN, D3 receptor. The arrangement: expressed in transfected cells; host or cells: HEK293. Particulars: for Ki: [125I]IABN, D3 receptors expressed in HEK cells, mean ± SEM, three experiments, HCl salts, read-out: Ki ± SEM (nM) D3; for D2/D3: selectivity ratio of Ki D2 / Ki D3 (fold). On the procedure:
as §1
Ki values for D2 and D3 receptors were measured using [^125I]IABN in human D2 and D3 receptors expressed in HEK cells, respectively. A filtration binding assay was used to characterize membrane-associated receptor binding properties. The details for the procedures were described in the literature.

Test [8] addresses T4, Serotonin 5-HT3 (Homo sapiens, UniProt P46098).
T4 sequence (P46098 24-478): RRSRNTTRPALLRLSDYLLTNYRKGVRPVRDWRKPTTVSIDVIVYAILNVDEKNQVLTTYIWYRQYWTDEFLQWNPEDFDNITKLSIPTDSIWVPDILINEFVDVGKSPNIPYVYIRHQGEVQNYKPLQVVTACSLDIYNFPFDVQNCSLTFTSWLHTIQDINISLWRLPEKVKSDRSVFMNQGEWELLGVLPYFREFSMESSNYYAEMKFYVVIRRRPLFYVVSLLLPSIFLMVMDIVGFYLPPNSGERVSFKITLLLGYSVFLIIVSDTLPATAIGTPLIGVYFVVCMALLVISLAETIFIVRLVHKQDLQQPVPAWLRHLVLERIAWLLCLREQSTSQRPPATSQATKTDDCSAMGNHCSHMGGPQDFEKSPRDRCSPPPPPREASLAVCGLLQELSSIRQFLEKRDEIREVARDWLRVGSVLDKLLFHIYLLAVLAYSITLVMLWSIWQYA
The test is described as follows: PDSP binding screen.

Test [9] concerns the target GABAA. The test can be described thus: PDSP binding screen. As to conditions: HCl salts.

Sequence of Adrenergic beta3 (P13945 whole entry): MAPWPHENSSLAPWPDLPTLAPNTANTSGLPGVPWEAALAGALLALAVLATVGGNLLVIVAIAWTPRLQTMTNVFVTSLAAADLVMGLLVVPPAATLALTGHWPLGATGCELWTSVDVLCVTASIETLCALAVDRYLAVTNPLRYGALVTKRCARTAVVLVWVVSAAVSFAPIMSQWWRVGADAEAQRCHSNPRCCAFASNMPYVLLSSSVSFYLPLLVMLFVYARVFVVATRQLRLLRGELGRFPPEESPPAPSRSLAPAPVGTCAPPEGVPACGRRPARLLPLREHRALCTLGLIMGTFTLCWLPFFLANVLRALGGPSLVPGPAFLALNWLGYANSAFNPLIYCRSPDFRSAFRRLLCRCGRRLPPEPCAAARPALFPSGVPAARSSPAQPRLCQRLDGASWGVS
Sequence of Histamine H1 (P35367 whole entry): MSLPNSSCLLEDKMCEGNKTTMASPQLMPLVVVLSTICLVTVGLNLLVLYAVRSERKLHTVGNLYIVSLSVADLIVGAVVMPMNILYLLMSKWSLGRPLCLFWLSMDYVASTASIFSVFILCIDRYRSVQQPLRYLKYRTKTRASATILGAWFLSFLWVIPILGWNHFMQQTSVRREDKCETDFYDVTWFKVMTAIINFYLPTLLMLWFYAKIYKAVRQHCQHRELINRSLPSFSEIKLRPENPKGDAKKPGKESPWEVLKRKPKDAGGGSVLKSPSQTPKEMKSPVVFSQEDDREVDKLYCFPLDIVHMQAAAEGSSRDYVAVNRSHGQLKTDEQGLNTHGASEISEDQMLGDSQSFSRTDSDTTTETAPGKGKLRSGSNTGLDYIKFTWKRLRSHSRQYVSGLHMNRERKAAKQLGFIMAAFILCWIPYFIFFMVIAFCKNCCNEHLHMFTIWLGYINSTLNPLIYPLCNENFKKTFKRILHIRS
Sequence of Serotonin 5-HT1B (P28222 whole entry): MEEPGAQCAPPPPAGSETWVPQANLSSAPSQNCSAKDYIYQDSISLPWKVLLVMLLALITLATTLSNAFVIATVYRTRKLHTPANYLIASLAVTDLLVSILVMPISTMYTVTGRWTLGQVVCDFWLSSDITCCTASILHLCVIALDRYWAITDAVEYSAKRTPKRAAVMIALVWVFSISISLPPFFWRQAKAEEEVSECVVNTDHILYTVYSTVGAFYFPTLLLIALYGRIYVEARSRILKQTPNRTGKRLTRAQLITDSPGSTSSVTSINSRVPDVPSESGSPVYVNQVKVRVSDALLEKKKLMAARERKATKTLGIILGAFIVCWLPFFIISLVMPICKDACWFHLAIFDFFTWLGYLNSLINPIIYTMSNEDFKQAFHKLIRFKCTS
T1 sequence (P35462 whole entry): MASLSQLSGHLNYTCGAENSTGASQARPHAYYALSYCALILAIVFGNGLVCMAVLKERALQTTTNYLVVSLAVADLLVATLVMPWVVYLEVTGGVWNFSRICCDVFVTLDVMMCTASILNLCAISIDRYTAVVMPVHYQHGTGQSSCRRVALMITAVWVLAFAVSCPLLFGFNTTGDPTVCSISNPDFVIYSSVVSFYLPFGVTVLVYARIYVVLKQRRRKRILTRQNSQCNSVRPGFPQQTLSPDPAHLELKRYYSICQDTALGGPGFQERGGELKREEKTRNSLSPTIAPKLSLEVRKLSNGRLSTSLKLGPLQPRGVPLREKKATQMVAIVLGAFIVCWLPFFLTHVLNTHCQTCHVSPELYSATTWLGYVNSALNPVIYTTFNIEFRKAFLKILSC

By IC50 is commonly meant the concentration that gives 50% inhibition. As a reminder, the inhibition is the share of the control response that was lost under treatment. Usually Ki stands for the equilibrium dissociation constant of an inhibitor or competing ligand from its target. Turning to `CCN(CCCNC(=O)c1ccc(-c2ccsc2)cc1)CCNC(=O)c1cc(Br)cc(OC)c1OC` [21g, 5-Bromo-N-(2-(ethyl(3-(4-(thiophen-3-yl)benzamido)propyl)amino)ethyl)-2,3-dimethoxybenzamide], in test [1], the Emax worked out at 50.1 ± 20.9%. Moreover, in [1], the 50% inhibitory concentration (IC50) turned out to be 36.8 ± 35.7 nM. The inhibition at 10 µM in test [2] was under 50%. Moreover, the Ki is 1060 nM in [3]; 102 nM in test [4]; 1090 nM in test [5]; 2960 nM in test [6]; 2.5 ± 0.3 nM in test [7]; 195 nM in test [8]. Moreover, the D2/D3 in test [7] was 125. For the same compound, in test [9], the “Ki (nM) or % inhibition at 10 µM: GABAA” value is “N/A (N/A; not active means less than 50% inhibition that was obtained in primary binding assay at 10 µM of the compound)”.

In the case of `CCN(CCCNC(=O)c1ccc2ccccc2c1)CCNC(=O)c1cc(Br)cc(OC)c1OC` [21a, N-(3-((2-(5-Bromo-2,3-dimethoxybenzamido)ethyl)(ethyl)amino)propyl)-2-naphthamide], in [1], the Emax stood at 66.1 ± 17.6%. Further, the half-inhibitory concentration (IC50) in test [1] came out at 16.4 ± 7.7 nM. Besides, the inhibition at 10 µM in test [2], in [3] and in test [5] was under 50% each time. Moreover, the inhibition constant Ki in [4] is 1510 nM; in test [6], 4530 nM; in test [7] it was 1.2 ± 0.2 nM; in test [8], 53 nM. For the same compound, in [7], the D2/D3 is 141. Further, the “Ki (nM) or % inhibition at 10 µM: GABAA” value in test [9] was “N/A (N/A; not active means less than 50% inhibition that was obtained in primary binding assay at 10 µM of the compound)”.

As to `CCN(CCCNC(=O)c1cc2ccccc2[nH]1)CCNC(=O)c1cc(Br)cc(OC)c1OC` [21d, N-(3-((2-(5-Bromo-2,3-dimethoxybenzamido)ethyl)(ethyl)amino)propyl)-1H-indole-2-carboxamide], the Emax in test [1] was 57.7 ± 26.9%. Also, the IC50 in [1] is 9.3 ± 12 nM. The Ki in [2] was found to be 4220 nM; in [4] it was 0.95 nM; in test [7], 0.8 ± 0.2 nM; in test [8], 92 nM. The inhibition at 10 µM in test [3], in test [5] and in test [6] (read-out: Ki (nM) or % inhibition at 10 µM: beta3) was under 50% throughout. In addition, the D2/D3 in test [7] is recorded as 180.5. Moreover, the “Ki (nM) or % inhibition at 10 µM: GABAA” value in test [9] is “N/A (N/A; not active means less than 50% inhibition that was obtained in primary binding assay at 10 µM of the compound)”.

As for `CCN(CCCNC(=O)c1cn2ccccc2n1)CCNC(=O)c1cc(Br)cc(OC)c1OC` [21e, N-(3-((2-(5-Bromo-2,3-dimethoxybenzamido)ethyl)(ethyl)amino)propyl)imidazo[1,2-a]pyridine-2-carboxamide], the Emax in [1] was 85.4 ± 6%. The IC50 in test [1] turned out to be 4.3 ± 2.5 nM. For the same compound, the inhibition at 10 µM in test [2], in test [3] and in test [5] was under 50% throughout. Further, the Ki in test [4] was 675 nM; in test [6] it was 5560 nM; in test [7], 2.8 ± 0.5 nM; in test [8], 148 nM. In test [7], the D2/D3 is on record as 50.7. Also, in test [9], the “Ki (nM) or % inhibition at 10 µM: GABAA” value is recorded as “N/A (N/A; not active means less than 50% inhibition that was obtained in primary binding assay at 10 µM of the compound)”.
